7 compounds from US20250090699A1, “FAP TARGETING CYCLIC PEPTIDES AND CONJUGATES THEREOF” (Novartis AG, priority 2023, published 2025) can be followed below.

Starred links: 1 amine or outer side, 2 acyl side, 3 side chain; linkers in the order of their positions; H or OH if unused. Non-standard residues stand in square brackets, D forms with d. Residues, ends and D or L forms follow the SMILES beside them. Groups on a side chain read outwards from the residue. *: point of attachment. F(4amPEG2NH-NOTA-AlF) = aluminum [18F]fluoride complex of (S)-2,2'-(7-(1-(4-(2-amino-2-carboxyethyl)phenyl)-3,12-dioxo-5,8-dioxa-2,11-diazatridecan-13-yl)-1,4,7-triazonane-1,4-diyl)diacetic acid (Phe with 4-aminomethyl-PEG2-NOTA-Al18F), O=C([O-])CN1CCN(CC(=O)[O-])CCN(CC(=O)NCCOCCOCC(=O)NCc2ccc(C[C@H](N[*:1])C(=O)[*:2])cc2)CC1.[18F][Al+2]; F4(amGlyDOTALu) = lutetium complex of (S)-2,2',2''-(10-(2-((2-((4-(2-amino-2-carboxyethyl)benzyl)amino)-2-oxoethyl)amino)-2-oxoethyl)-1,4,7,10-tetraazacyclododecane-1,4,7-triyl)triacetic acid (Phe with 4-aminomethyl-Gly-DOTA-Lu), O=C([O-])CN1CCN(CC(=O)[O-])CCN(CC(=O)NCC(=O)NCc2ccc(C[C@H](N[*:1])C(=O)[*:2])cc2)CCN(CC(=O)[O-])CC1.[Lu+3]; COpipzaa = 4-(carboxymethyl)piperazine-1-carbonyl, O=C(O)CN1CCN(C(=O)*)CC1; AAZTA5 = O=C(O)CN1CCN(CC(=O)O)CC(CCCCC(=O)*)(N(CC(=O)O)CC(=O)O)C1; hS(Pr) = O-propyl-L-homoserine, CCCOCC[C@H](N[*:1])C(=O)[*:2]; NOTA = O=C(O)CN1CCN(CC(=O)O)CCN(CC(=O)*)CC1; Phe(4-CH2NH2) = NCc1ccc(C[C@H](N)C(=O)O)cc1; Piperazinyl(4-CH2COOH) = O=C(O)CN1CCN(*)CC1; NMeF = CN[C@@H](Cc1ccccc1)C(=O)O; Aoc(2) = CCCCCC[C@H](N)C(=O)O; Ahp(2) = CCCCC[C@H](N)C(=O)O; hSer = N[C@@H](CCO)C(=O)O; AEEA = NCCOCCOCC(=O)O; CO = O=C([*:1])[*:2]; Propyl = CCC*

In test [1] the target is T1, mouse FAP (Mus musculus, UniProt P97321).
T1 construct: biotinylated His, Avi tag, mouse FAP (26-761, FAP-M82Q5); His; Avi tag (biotinylated); purchased AcroBiosystems FAP-M82Q5
T1 sequence (P97321 26-761): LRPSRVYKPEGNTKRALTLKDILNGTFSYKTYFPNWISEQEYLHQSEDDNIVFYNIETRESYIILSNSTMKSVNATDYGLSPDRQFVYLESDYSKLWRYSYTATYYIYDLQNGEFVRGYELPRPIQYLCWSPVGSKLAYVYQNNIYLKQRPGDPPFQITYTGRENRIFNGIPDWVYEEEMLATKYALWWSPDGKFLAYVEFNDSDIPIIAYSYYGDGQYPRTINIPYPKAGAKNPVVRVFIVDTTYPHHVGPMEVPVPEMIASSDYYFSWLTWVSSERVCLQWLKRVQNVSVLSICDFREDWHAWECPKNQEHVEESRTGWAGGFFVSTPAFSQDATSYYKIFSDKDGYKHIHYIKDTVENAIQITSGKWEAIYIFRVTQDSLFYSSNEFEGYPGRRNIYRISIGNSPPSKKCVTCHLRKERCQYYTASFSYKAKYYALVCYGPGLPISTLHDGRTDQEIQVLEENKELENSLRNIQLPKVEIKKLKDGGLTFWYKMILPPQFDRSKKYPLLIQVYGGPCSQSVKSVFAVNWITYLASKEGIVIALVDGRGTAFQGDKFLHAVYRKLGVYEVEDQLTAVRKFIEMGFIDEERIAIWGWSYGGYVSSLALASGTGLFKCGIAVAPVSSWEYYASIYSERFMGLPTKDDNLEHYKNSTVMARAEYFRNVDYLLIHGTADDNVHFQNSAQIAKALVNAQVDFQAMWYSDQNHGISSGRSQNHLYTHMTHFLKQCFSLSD
Briefly: Surface plasmon resonance (SPR) for peptide affinity, mouse FAP. In kind it is binding. The essentials: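 KD values come from a 1:1 kinetic fit of single-cycle SPR data: 8 peptide concentrations, 25 °C, 30 μL/min, HEPES-buffered saline pH 7.6 with 2% DMSO. Targets were His/Avi-tagged human (26-760) or mouse (26-761) FAP, amine-coupled to CM5 or held on a CAPture chip.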
A general note: In SPR one partner is held on a chip, and binding of the other changes the refractive index at the surface.

A further test concerns the target T2, human FAP (Homo sapiens, UniProt Q12884).
T2 construct: the biotinylated His, Avi tag, human FAP (26-760, FAP-H82Q6); His; Avi tag (biotinylated); purchased AcroBiosystems FAP-H82Q6
T2 sequence (Q12884 26-760): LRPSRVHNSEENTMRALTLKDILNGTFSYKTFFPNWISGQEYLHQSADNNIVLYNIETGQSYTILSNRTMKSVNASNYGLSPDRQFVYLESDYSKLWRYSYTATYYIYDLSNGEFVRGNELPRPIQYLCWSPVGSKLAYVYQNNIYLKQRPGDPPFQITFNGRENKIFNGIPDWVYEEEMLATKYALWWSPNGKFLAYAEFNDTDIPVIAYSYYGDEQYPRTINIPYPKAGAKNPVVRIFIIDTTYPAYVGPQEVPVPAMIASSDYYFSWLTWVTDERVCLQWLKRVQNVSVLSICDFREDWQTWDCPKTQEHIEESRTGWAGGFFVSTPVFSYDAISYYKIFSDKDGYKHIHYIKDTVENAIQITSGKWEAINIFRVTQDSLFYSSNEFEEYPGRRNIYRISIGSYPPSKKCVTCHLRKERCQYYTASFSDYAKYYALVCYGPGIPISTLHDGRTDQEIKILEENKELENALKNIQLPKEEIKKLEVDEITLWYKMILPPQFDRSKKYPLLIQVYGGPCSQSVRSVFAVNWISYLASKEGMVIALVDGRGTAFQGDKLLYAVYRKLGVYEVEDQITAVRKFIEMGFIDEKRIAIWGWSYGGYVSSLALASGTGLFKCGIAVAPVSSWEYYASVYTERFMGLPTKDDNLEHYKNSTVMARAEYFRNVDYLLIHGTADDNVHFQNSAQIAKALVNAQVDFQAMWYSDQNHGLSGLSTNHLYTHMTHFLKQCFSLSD
Nature of the test: Enzymatic FAP competition assay (Z-Gly-Pro-AMC fluorescence), human FAP. As to conditions: read-out: h. FAP, Enz., IC50. In kind it is biochemical. The essentials:
(§1)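 IC50 values come from curve fitting of duplicate % inhibition data on AMC fluorescence (ex 380, em 460 nm) after 4 h at 22-24° C with 50 μM Z-Gly-Pro-AMC. Beforehand, peptides up to 1 μM (14 levels) sat 24 h with 0.01 nM human (26-760) or mouse (26-761) tagged FAP in phosphate buffer pH 7.5, NaCl, Tween20, 1% DMSO.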

Test [2] has as its target T1, mouse FAP. Briefly: Enzymatic FAP competition assay (Z-Gly-Pro-AMC fluorescence), mouse FAP. As to conditions: read-out: m. FAP, Enz., IC50. In kind it is biochemical. The essentials: as §1

As usually defined, the Kd is the free concentration of one partner at which half of the binding sites on the other are occupied at equilibrium, for simple one-to-one binding. Read a low Kd as tighter binding. The IC50 is the concentration needed to halve the response being measured. The compound `CCCCCC[C@@H]1NC(=O)[C@H](Cc2ccc(CNC(=O)COCCOCCNC(=O)CN3CCN(CC(=O)O)CCN(CC(=O)O)CC3)cc2)NC(=O)[C@H](Cc2ccccc2)N(C)C(=O)CNC(=O)CNC(=O)[C@H]2CCCN2C(=O)[C@H](CC(=O)O)NC(=O)[C@H](CCCCNC(=O)N2CCN(CC(=O)O)CC2)NC(=O)CNC(=O)[C@H](Cc2c[nH]c3ccccc23)NC1=O` [Example B40, Gly-Gly-NMePhe-F(4amPEG2NHNOTA)-Aoc-Trp-Gly-K(COpipzaa)-Asp-D-Pro] (cyclo(GG[NMeF][Phe(4-CH2NH2)]([AEEA-NOTA])[Aoc(2)]WGK([CO-Piperazinyl(4-CH2COOH)])D[dP])) showed a Kd at mouse FAP [1] of less than 0.024 nM. Moreover, the IC50 at human FAP was determined as 0.006 nM; on mouse FAP [2], 0.012 nM.
As for “Glu-Gly-NMe3PyA-F(4amPEG2NHDOTA-Lu)-hS(Pr)-W7N-Gly-K(COpipzaa)-Asp-D-Pro [Example C7]”, at mouse FAP [1], the Kd is less than 0.068 nM. Besides, the IC50 at human FAP amounted to 0.014 nM; at mouse FAP [2] it was 0.034 nM.
Regarding `CCCCCC[C@@H]1NC(=O)[C@H](Cc2ccc(CNC(=O)COCCOCCNC(=S)Nc3ccc(CC4CN(CC(=O)O)CCN(CC(=O)O)CCN(CC(=O)O)CCN4CC(=O)O)cc3)cc2)NC(=O)[C@H](Cc2ccccc2)N(C)C(=O)CNC(=O)CNC(=O)[C@H]2CCCN2C(=O)[C@H](CC(=O)O)NC(=O)[C@H](CCCCNC(=O)N2CCN(CC(=O)O)CC2)NC(=O)CNC(=O)[C@H](Cc2c[nH]c3ccccc23)NC1=O` (stereo partly drawn) [Example B37, Gly-Gly-NMePhe-F(4amPEG2NH-p-SCN-DOTA-Aoc-Trp-Gly-K(COpipzaa)-Asp-D-Pro], the Kd on mouse FAP [1] was less than 0.022 nM. Further, the IC50 at human FAP turned out to be 0.017 nM; on mouse FAP [2], 0.042 nM.
For `CCCOCC[C@@H]1NC(=O)[C@H](Cc2ccc(CNC(=O)COCCOCCNC(=O)CCCCC3(N(CC(=O)O)CC(=O)O)CN(CC(=O)O)CCN(CC(=O)O)C3)cc2)NC(=O)[C@H](Cc2ccccc2)N(C)C(=O)CNC(=O)CNC(=O)[C@H]2CCCN2C(=O)[C@H](CC(=O)O)NC(=O)[C@H](CCCCNC(=O)N2CCN(CC(=O)O)CC2)NC(=O)CNC(=O)[C@H](Cc2c[nH]c3ccccc23)NC1=O` [Example B31, Gly-Gly-NMePhe-F(4amPEG2NHAAZTA)-hS(Pr)-Trp-Gly-K(COpipzaa)-Asp-D-Pro] (cyclo(D[dP]GG[NMeF][Phe(4-CH2NH2)]([AEEA-AAZTA5])[hSer](Propyl)WGK([CO-Piperazinyl(4-CH2COOH)]))), the Kd on mouse FAP [1] is 0.25 nM. The IC50 on human FAP worked out at 0.03 nM; at mouse FAP [2] it was 0.1 nM.
On to “Gly-Gly-NMePhe-F(4amPEG2NH-NOTA-AlF)-hS(Pr)-Trp-Gly-K(COpipzaa)-Asp-D-Pro (cyclo(GG[NMeF][F(4amPEG2NH-NOTA-AlF)][hS(Pr)]WGK(COpipzaa)D[dP]); also: Al[18F]F complex) [Example C53]”, for which, in the test with mouse FAP [1], the Kd was less than 0.035 nM. Also, the results for the IC50 with human FAP and with mouse FAP [2] were 0.013 nM and 0.035 nM, respectively.
The compound “Gly-Gly-NMePhe-F4(amGlyDOTALu)-Ahp-Trp-Gly-Tyr-Asp-D-Pro (cyclo(GG[NMeF][F4(amGlyDOTALu)][Ahp(2)]WGYD[dP]); also: Lu complex) [Example C9]” yielded a Kd with mouse FAP [1] of 0.032 nM. In addition, the IC50 with human FAP was found to be 0.01 nM; in the test with mouse FAP [2], 0.024 nM.
`CCCCC[C@@H]1NC(=O)[C@H](Cc2ccc(O)cc2)NC(=O)[C@H](Cc2ccccc2)N(C)C(=O)[C@@H](CO)NC(=O)CNC(=O)[C@H]2CCCN2C(=O)[C@H](CC(=O)O)NC(=O)[C@H](Cc2ccc(O)cc2)NC(=O)CNC(=O)[C@H](Cc2c[nH]c3ccccc23)NC1=O` [Example A67, Gly-D-Ser-NMePhe-Tyr-Ahp-Trp-Gly-Tyr-Asp-D-Pro] (cyclo([Ahp(2)]WGYD[dP]G[dS][NMeF]Y)) came in with a Kd on mouse FAP [1] of 208 nM. The IC50 was 76 nM on human FAP and 252 nM at mouse FAP [2].
